Values belong to the compound of their own block, whether it stands above or below them.
Legend:
SDH complex [1] = target: T1, SDH complex (Homo sapiens, UniProt O14521+P21912+P31040+Q99643); experiment: SDH forward/reverse activity (succinate oxidation, fumarate reduction) by stable isotope tracing in cells; format: cell-based
T1 construct: endogenous in cells; host or cells: 143B cells (A5: live cells; A6: permeabilized mitochondria purified from them)
Text: Fumarate reduction can be monitored in cells by the stable isotope tracing of either ^13C4-aspartate or ^13C5^15N2-glutamine. ^13C4-aspartate contributes to the fumarate pool via oxaloacetate and malate and so should lead to the production of ^13C4-succinate upon fumarate reduction (FIG. 2B). ^13C5^15N2-glutamine contributes to the fumarate pool through the reductive arm of the TCA cycle via glutamate, α-ketoglutarate, isocitrate, citrate, oxaloacetate, and malate. A key distinction between the two labeling approaches is that ^13C5^15N2-glutamine enriches the fumarate pool more upon antimycin treatment due to enhanced reductive carboxylation flux, whereas ^13C4-aspartate labels the fumarate pool to equivalent extents in vehicle and antimycin-treated cells (FIG. 2C). Therefore, with stable isotope tracing of ^13C4-aspartate, the level of ^13C4-succinate is a direct measure of fumarate reduction, whereas the stable isotope tracing of ^13C5^15N2-glutamine requires a ratiometric analysis of labeled succinate to labeled fumarate to normalize for differences in the extent of fumarate labeling.
To test if hypoxia triggers electron leakage onto fumarate or a net-reversal of the SDH complex, the ^13C5^15N2-glutamine tracer was utilized, which enables simultaneous quantification of the forward and reverse activities of SDH through the generation of unique isotopologues upon flux through the oxidative arm (α-ketoglutarate to succinate) compared to the reductive arm (α-ketoglutarate—via citrate—to fumarate) of the TCA cycle (FIG. 2E). In this assay, the forward (succinate oxidation) reaction was defined as the ratio of percent labeled ^13C4-fumarate to its precursor ^13C4-succinate (FIG. 2E) and the reverse (fumarate reduction) as that of percent labeled ^13C3-succinate to its precursor ^13C3-fumarate (FIG. 2E). This type of analysis can be performed when the labeling is in the steady-state, which was determined to be after 4-8 hours of incubation with ^13C5^15N2-glutamine (FIG. S2E-F). This ratiometric analysis of the succinate and fumarate isotopologues eliminates potential biases in the assay, such as higher ^13C3-fumarate labeling in antimycin-treated cells caused increased reductive carboxylation flux (FIG. S2E).
Stable isotope tracing in cells: Cells were seeded 24 hours prior to the experiment in 6-well dishes at 70% density. For stable isotope tracing of glutamine, glutamine-free DMEM (ThermoFisher) was supplemented with 2 mM ^13C5^15N2-glutamine (Sigma), 1 mM pyruvate, 5% FBS, 1% P/S, 0.1 mg/mL uridine. For stable isotope tracing of aspartate, DMEM containing 5% FBS, and 1% penicillin and streptomycin, and 0.1 mg/mL uridine (Sigma) was supplemented with the designated amount of 13C4-aspartate (Sigma) and the pH adjusted to 7.4. Uridine was left out of the media for stable isotope tracing experiments measuring nucleotide biosynthesis. Unless otherwise stated, for all experiments, cells were treated for 8 hours and metabolites were isolated as described below. Relevant compounds were added at the start of the incubation periods.

143B cells [2] = experiment: Cell proliferation; format: cell-based, human; settings: for proliferation: UQCRC2 and COX4 knockout cells
Procedure: Proliferation: 25,000 cells were seeded in 6-well dishes and counted on day 1 and day 5 on a Beckman Coulter Counter. Doubling times were calculated using the following equation: […]

143B cells [3] = experiment: Oxygen consumption rate of cultured cells; format: cell-based, human; settings: UQCRC2 and COX4 knockout cells
Procedure: Oxygen Consumption Rate (Seahorse): Respiration was measured on intact 143B cells and on mitochondria purified from tissue on the Seahorse XFe-96 Analyzer (Seahorse Bioscience). Cells were incubated in a non-CO2 37° C. incubator in serum-free Seahorse XF RPMI Media (Seahorse Bioscience, Catalog #103336) supplemented with 5 mM glucose, 2 mM glutamine, and 1 mM pyruvate. Oxygen consumption rate (OCR) was measured over a period of 30 minutes. Oxygen consumption rate was also measured on mitochondria purified from mouse tissues. Mitochondria were incubated in MAS buffer (70 mM sucrose, 220 mM mannitol, 10 mM KH2PO4, 5 mM MgCl2, 2 mM HEPES pH 7.2, 1 mM EGTA, 2% BSA) supplemented with 2 mM ADP, 5 mM glutamate, 5 mM malate, 5 mM pyruvate, and 2.5 mM succinate. Oxygen consumption rate (OCR) was measured over a period of 30 minutes.
Oxygen Consumption Rate (Resipher): 25,000 143B cells were seeded into Thermo Nunc Treated, Flat-Bottom 96-Well Microplate (167008) in standard culture medium 24 hours prior to experimentation. […] Live oxygen consumption rate was measured for 3 hours and then media was changed to treat cells with the appropriate inhibitors. Live oxygen consumption rate was monitored for an additional 3 hours. Data were analyzed on Resipher web application (Lucid Scientific).

SDH complex [4] = experiment: SDH activity assay in permeabilized purified mitochondria; format: biochemical, human; settings: permeabilized purified mitochondria; 1 μM piericidin
Procedure: SDH activity was examined in permeabilized purified mitochondria. The rate of succinate oxidation was measured by monitoring fumarate production over time after initiating the reaction with succinate. The rate of fumarate reduction was measured in a separate assay by monitoring the rate of succinate production over time after initiating the reaction with fumarate and NADH. […] Moreover, complex I inhibition by piericidin suppressed the fumarate reduction caused by antimycin treatment (FIG. 2I).
(§1) Isolation of Mitochondria for Biochemical Assays: 143B cells were scraped and pelleted at 1000×g for 5 minutes. Cell pellets were washed in 1×PBS and pelleted at 1000×g for 5 minutes. For tissue samples, approximately 100 mg of tissue powder was weighed out. Tissue powder or cells were re-suspended in isolation buffer (200 mM sucrose, 10 mM Tris HCl, 1 mM EGTA/Tris, pH 7.4 (adjusted with 1M HEPES)), transferred into an ice-cold glass homogenizer (VWR), and dounced with 15-30 strokes. Homogenates were transferred into tubes and spun at 600×g for 10 minutes at 4° C. Supernatants were moved to a new tube and centrifugation was repeated. Then, supernatants were moved to a new tube and pelleted at 7,000×g for 10 minutes at 4° C. Pellets were washed in isolation buffer and centrifugation was repeated. Pellets were subsequently stored at −80° C. until use.
SDH Activity Assay: Purified mitochondria were re-suspended in buffer (0.22 M Mannitol, 0.075 M Sucrose, 1 mM EDTA, 10 mM HEPES pH 7.4, and one complete Protease inhibitor tablet (Sigma)) to a concentration of 5 mg/mL and underwent 5 freeze-thaw cycles to permeabilize them. 30 μg mitochondria (6 uL) were diluted 1:10 (in 54 uL) of SDH activity assay buffer (27.5 mM KH2PO4 pH 7.4, 1.1 mM CoQ-10 (Sigma), 3.5 g/L BSA). Reactions were supplemented with DMSO, 1 μM antimycin, or 1 μM piericidin and pre-incubated at 37° C. for 10 minutes. […] Samples were centrifuged at 16,000×g for 10 minutes at 4° C. and supernatants were dried down and analyzed by LC-MS for succinate and fumarate.

DHODH = DHODH (Homo sapiens, UniProt Q02127)
Chain of DHODH (Q02127 whole entry): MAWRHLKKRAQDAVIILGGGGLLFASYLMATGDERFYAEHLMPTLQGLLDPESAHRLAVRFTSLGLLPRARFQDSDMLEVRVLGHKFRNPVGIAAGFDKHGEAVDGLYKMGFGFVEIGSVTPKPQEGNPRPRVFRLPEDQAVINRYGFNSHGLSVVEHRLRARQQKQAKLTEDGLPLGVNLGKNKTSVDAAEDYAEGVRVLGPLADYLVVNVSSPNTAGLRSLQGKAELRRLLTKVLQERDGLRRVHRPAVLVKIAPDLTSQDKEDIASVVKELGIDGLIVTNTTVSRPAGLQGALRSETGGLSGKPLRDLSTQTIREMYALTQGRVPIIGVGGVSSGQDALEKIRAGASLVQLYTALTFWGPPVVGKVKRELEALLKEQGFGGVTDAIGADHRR
Procedure: Isolation of metabolites from adherent cells: To isolate metabolites, media was removed, cells were washed 2 times with ice cold 1×PBS, and wells were covered in LC-MS grade 80:20 Methanol:Water (ThermoFisher). Plates were scraped on dry ice and lysates were collected into eppendorf tubes. Lysates were vortexed for 10 minutes at 4° C. and centrifuged at 16,000×g for 10 minutes at 4° C. Supernatants were immediately dried down in a Refrigerated CentriVap Benchtop Vacuum Concentrator connected to a CentriVap-105 Cold Trap (Labconco). Dried pellets were stored at −80° C. until they were run on LC-MS.
Liquid Chromatography and Mass Spectrometry (polar): A QExactive bench top orbitrap mass spectrometer equipped with an Ion Max source and a HESI II probe coupled to a Dionex UltiMate 3000 HPLC system (Thermo Fisher Scientific) was used to perform all LC-MS experiments. The instrument underwent mass calibration using the standard calibration mixture every 7 days. 2 μL of re-suspended polar metabolite samples were injected onto a SeQuant ZIC-pHILIC 5 μm 150×2.1 mm analytical column equipped with a 2.1×20 mm guard column (MilliporeSigma). The column oven was held at 25° C. and the autosampler tray was held at 4° C. Buffer A was comprised of 20 mM ammonium carbonate, 0.1% ammonium hydroxide. Buffer B was comprised of 100% acetonitrile. The chromatographic gradient was run at a flow rate of 0.150 mL/min as follows: 0-20 min: linear gradient from 80-20% B; 20-20.5 min: linear gradient from 20-80% B; 20.5-28 min: hold at 80% B. The mass spectrometer was operated in full-scan, polarity-switching mode, with the spray voltage set to 3.0 kV, the heated capillary at 275° C., and the HESI probe at 350° C. The sheath gas flow was 40 units, the auxiliary gas flow was 15 units, and the sweep gas flow was 1 unit. MS data was collected in a range of m/z=70-1000. The resolution set at 70,000, the AGC target at 1×106, and the maximum injection time at 20 msec. An additional scan (m/z=220-700) was included in negative mode only to enhance detection of nucleotides.

[5] = test system: mitochondrial membrane potential; experiment: Mitochondrial membrane potential (TMRE dye); format: cell-based, human; settings: 250 nM CCCP
Procedure: Live Cell Imaging: 143B cells were seeded at 50% density in 6-well dishes 24 hours prior to the experiment. Cells were pre-incubated with 500 nM TMRE dye for 30 minutes and then imaging on a Nikon TE2000 inverted microscope was started. Images were taken at 1 minute intervals over the course of an hour in the mCherry channel while the plate was incubated in a chamber maintaining a temperature of 37° C. and 5% CO2.
Flow Cytometry: Cells were seeded 24 hours prior to the experiment at 50% density. On the day of the experiment, the cells were treated for the designated time with inhibitors. 30 minutes prior to the end of the incubation, 500 nM TMRE dye was added to the wells. Following incubation cells were washed, trypsinized, and filtered through a cell strainer prior to sorting. Fluorescence-activated cell sorting was performed on a LSR-II sorter, in which the fluorescence intensity of individual cells was quantified in the PE channel. Data were analyzed using FlowJo software (TreeStar).

complex I = experiment: Complex I activity assay (DCPIP) on purified mitochondria; format: biochemical, human; settings: mitochondria from wild-type, UQCRC2 KO and COX4 KO 143B cells; 1 μM rotenone
Procedure: as §1
Complex 1 activity assay (DCPIP): Purified mitochondria were re-suspended in buffer (0.22 M Mannitol, 0.075 M Sucrose, 1 mM EDTA, 10 mM HEPES pH 7.4, and one complete Protease inhibitor tablet (Sigma)) to a concentration of 5 mg/mL. […] Either 1 μM rotenone or equivalent DMSO was added to each well and baseline absorbance at 600 nm was measured on a SpectraMax iD5 plate reader (Molecular Devices). Reactions were initiated by adding NADH (Sigma) to a final concentration of 2 mM and absorbance at 600 nm was monitored over time.

T1 sequence (P31040 43-664): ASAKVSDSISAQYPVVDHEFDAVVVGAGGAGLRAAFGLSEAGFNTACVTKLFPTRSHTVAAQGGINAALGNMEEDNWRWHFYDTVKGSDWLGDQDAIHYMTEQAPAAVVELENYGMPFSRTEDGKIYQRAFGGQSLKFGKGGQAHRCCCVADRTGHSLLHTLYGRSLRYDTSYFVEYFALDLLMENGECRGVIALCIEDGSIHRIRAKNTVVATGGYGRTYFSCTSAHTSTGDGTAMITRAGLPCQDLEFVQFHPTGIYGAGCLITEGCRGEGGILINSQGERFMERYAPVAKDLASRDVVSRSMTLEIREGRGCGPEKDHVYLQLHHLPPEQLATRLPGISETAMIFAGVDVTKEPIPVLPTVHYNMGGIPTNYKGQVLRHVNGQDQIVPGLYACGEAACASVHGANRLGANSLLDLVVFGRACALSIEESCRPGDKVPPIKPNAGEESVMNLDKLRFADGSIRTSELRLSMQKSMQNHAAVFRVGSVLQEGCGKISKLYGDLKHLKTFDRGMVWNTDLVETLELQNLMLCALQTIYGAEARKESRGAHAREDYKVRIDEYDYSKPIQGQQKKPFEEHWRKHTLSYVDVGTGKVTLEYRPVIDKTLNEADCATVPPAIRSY
T1 sequence (P21912 29-280): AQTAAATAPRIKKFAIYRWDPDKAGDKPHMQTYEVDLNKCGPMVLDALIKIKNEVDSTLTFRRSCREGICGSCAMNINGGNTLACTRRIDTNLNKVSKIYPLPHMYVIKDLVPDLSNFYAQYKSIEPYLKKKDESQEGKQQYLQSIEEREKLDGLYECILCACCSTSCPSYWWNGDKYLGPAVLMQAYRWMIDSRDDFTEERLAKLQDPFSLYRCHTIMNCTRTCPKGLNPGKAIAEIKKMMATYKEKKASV
T1 sequence (Q99643 30-169): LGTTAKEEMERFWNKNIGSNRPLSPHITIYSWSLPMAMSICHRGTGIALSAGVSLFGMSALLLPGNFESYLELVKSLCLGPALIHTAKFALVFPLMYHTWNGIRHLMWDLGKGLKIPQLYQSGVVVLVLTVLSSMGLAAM
T1 sequence (O14521 57-159): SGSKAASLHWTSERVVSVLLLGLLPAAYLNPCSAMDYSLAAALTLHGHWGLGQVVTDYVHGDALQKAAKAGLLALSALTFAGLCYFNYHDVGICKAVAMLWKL

- fumarate reduction (SDH complex [1]; SDHB knockout cells): no effect
- fumarate reduction (SDH complex [1]; UQCRC2 and COX4 knockout cells): almost completely ablated
Structure (SMILES): O=C(O)CC(=O)O [malonic acid]
- proliferation (143B cells [2]): significantly reduced

Structure (SMILES): CC1(C)CC(NC(=O)C[P+](c2ccccc2)(c2ccccc2)c2ccccc2)CC(C)(C)N1[O] [MitoTEMPO]
- fumarate reduction (SDH complex [1]; antimycin-treated 143B cells): did not affect
- fumarate reduction (SDH complex [1]; vehicle-treated 143B cells): significant decrease

Structure (SMILES): C/C=C(\C)[C@H](O)[C@H](C)/C=C(C)/C=C/C/C(C)=C/Cc1nc(OC)c(OC)c(O)c1C [piericidin]
- O2 consumption rate (143B cells [3]): did not affect
- fumarate reduction caused by antimycin treatment (SDH complex [4]): suppressed
- DHODH activity (13C4-aspartate into 13C3-UTP) (DHODH; combined inhibition of complex III with antimycin and complex I with piericidin): no effect
- proliferation (143B cells [2]): did reduce their proliferation, although to a lesser extent than in wild-type cells

- 13C3-UTP biosynthesis (DHODH; UQCRC2 and COX4 knockout 143B cells, 2 μM brequinar): ablated
- de novo UTP biosynthesis (13C3-UTP generation, DHODH activity) (DHODH; wild-type 143B cells, 13C4-aspartate tracing 8 hours, 500 nM antimycin, 2 μM brequinar): ablated
Structure (SMILES): Cc1c(-c2ccc(-c3ccccc3F)cc2)nc2ccc(F)cc2c1C(=O)O [brequinar]
- O2 consumption rate (143B cells [3]): no effect
- proliferation (143B cells [2]): reduced
- aspartate-increased proliferation of antimycin-treated cells (143B cells [2]; culture media supplemented with aspartate, antimycin-treated cells): ablated

Structure (SMILES): N#CC(C#N)=NNc1cccc(Cl)c1 [CCCP, Carbonyl cyanide 3-chlorophenylhydrazone]
- TMRE fluorescence [5]: reduced fluorescence

- increase in fumarate reduction caused by antimycin treatment (SDH complex [1]; 143B cells, antimycin co-treatment): slightly suppressed
Structure (SMILES): COC(=O)CCC(=O)OC [dimethylsuccinate]

Structure (SMILES): C=C(C)[C@H]1Cc2c(ccc3c2O[C@@H]2COc4cc(OC)c(OC)cc4[C@@H]2C3=O)O1 [rotenone]
- complex I activity (complex I): significantly reduced
